PMC10381533, “Inhibitory Effects of the Fungal Pigment Rubiginosin C on Hyphal and Biofilm Formation in Candida albicans and Candida auris” (Journal of Fungi, 2023)

Assays:
[1] = tested on: C. albicans CAI-4 HWP1-lacZ [ZK3379]; assay: MIC assay, C. albicans CAI-4 HWP1-lacZ; type: cell-based, Candida albicans; conditions: tested 250–2 µg/mL
Procedure: (§1) The MICs of rubiginosin- and rutilin-type azaphilones—in detail, Rub A, C, W, Z, and Rut A and B—were determined as described previously using the selected pathogens C. albicans [DSM 11225, DSM 1665], C. albicans CAI-4 HWP1-lacZ [ZK3379] and C. auris [DSM 21092] (see Table S1 for detailed information). All compounds were tested within the concentration range of 250 µg/mL–2 µg/mL for C. albicans [DSM 11225, DSM 1665], C. albicans CAI-4 HWP1-lacZ [ZK3379], C. auris [DSM 21092]. […]
(§2) All compounds were fully dissolved in
(§3) The assay was conducted as a minimum inhibitory concentration (MIC) assay in 96-well round-bottom microtiter plates using the parameters summarized in table S1 and as already described in [2]. Stocks of the test organisms were generated by growing the organisms overnight in 250 mL (Candida albicans [DSM 11225], [DSM 1665], CAI-4 HWP1-lacZ, Candida auris [DSM 21092]) or 50 mL shaking (the rest organisms) flasks filled with 25 mL of the growth medium at 140 rpm (for media and temperatures see table S1). After incubation overnight, the OD of the suspension was measured and adjusted by diluting with the respective growth medium. OD600 nm was adjusted to 0.01 for bacteria and OD600 nm to 0.1 for fungi and 150 μL of the adjusted suspensions were added to all wells of a 96-well microtiter plate (one test organism per plate). Subsequently, additional 130 μL (1 mg/mL tested compounds) or 142.5 μL (10 mg/mL tested compounds ) of suspensions, plus 20 μL (1 mg/mL tested compounds) respectively 7.5 μL (10 mg/mL tested compounds ) of the test compounds were added to first row. C ontrols (one compound/column) were added as well: MeOH were used as solvent control, while different positive controls (reference drugs ) were used for the according test organisms (see table S1). Starting from row A, 150 μL of the suspension were transferred […]
(§4) to the next row, the contents thoroughly mixed, and 150 μL transferred to the following row. The remaining 150 μL after row H were discarded.
(§5) 66.7 μg/mL in row A to 0.52 μg/mL in row H (1 mg/mL tested compounds) or 250 μg/mL in row A to 2 μg/mL in row H (10 mg/mL tested compounds).
(§6) The 96-well microtiter plates were then incubated overnight on a microplate shaker at 800 rpm at 30 or 37 °C (see table S1) and were visually evaluated the next day. The MIC is defined as the lowest concentration where no growth of the test organism was observed. A lower MIC thus corresponds to a higher antimicrobial activity […]
(§7) Table S1: MIC assay experiment parameters.
(§8) Tested organisms Strain No. Growth Incubation Positive control medium temp. [°C ] (reference)
(§9) KB-3-1 (ACC 158) cervix carcinoma as well as L929 (ACC 2) mouse fibroblasts were cultured under standard cell culture conditions (37 °C, 5% CO2, 95% humidified atmosphere). The cells were maintained in high glucose DMEM containing 10% fetal bovine serum and 100 U/mL penicillin and streptomycin (Gibco, Thermo Fisher Scientific, Waltham, USA). Cell lines were serially passaged after trypsinization, using 0.05% trypsin / 0.02% EDTA solution. The cultures were routinely monitored for potential contamination, and only mycoplasma free cultures were used. The test compounds were investigated for their anti-proliferative effect on cell lines, using the 3-(4,5-dimethylthiazol-2-yl)-2,5-diphenyltetrazolium bromide (MTT) based cell viability assay. […]

C. albicans [DSM 11225] = assay: MIC assay, C. albicans DSM 11225; type: cell-based, Candida albicans; conditions: tested 250–2 µg/mL
Procedure: as §1, §2, §3, §4, §5, §6, §7, §8, §9

C. auris biofilm = assay: Crystal violet biofilm formation assay, C. auris; type: cell-based, Candida auris; conditions: for effect on formation of C. auris biofilms: CV assay, 24 h treatment; for inhibition at 2 µg/mL / inhibition at 3.9 µg/mL / inhibition at 7.8 µg/mL / inhibition at 15.6 µg/mL / inhibition at 31.3 µg/mL / inhibition at 62.5 µg/mL / inhibition at 125 µg/mL / inhibition at 250 µg/mL: Candidozyma auris, read-out: inhibition of C. auris biofilm formation compared to solvent control (= 0%)
Procedure: (§10) The fungal pathogens C. auris [[…]] or C. albicans [DSM 11225] were cultured from stock in 25 mL YPD medium in a 250 mL flask (30 °C, 100 rpm, 18 h). The turbidity of the broth was measured at 280 nm using a spectrophotometer (Nanodrop 2000c, Thermo Fisher Scientific, Waltham, MA, USA) and diluted to match the turbidity of a 0.5 McFarland standard in RPMI 1640 medium (Gibco, New York, NY, USA; Thermo Fisher Scientific), supplemented with […] 3-(N-morpholino)propanesulfonic acid (MOPS, Carl Roth, Karlsruhe, Germany) for C. auris, or 0.05 McFarland standard in RPMI 1640 medium in the case of C. albicans. Subsequently, 150 μL of the fungal dispersion were added into each well of a 96-well microtiter plate (Falcon no. 351172, Thermo Fisher Scientific) and further incubated (37 °C, 150 rpm, 2 h [C. auris] or 90 min [C. albicans]). The supernatant was discarded and the plate was rinsed one time by using a PBS buffer. Afterwards, azaphilones (Rub A, C, W, Z, and Rut A and B) were serially diluted in 150 μL in fresh medium to concentrations of 250–2 μg/mL (Rub C for C. auris: 250–0.02 μg/mL). Methanol (2.5%) was used as a solvent control and both, nystatin (NYS; Thermo Fisher Scientific) and farnesol (FA; Sigma Aldrich, St. Louis, MO, USA) as positive controls (250–2 μg/mL) for C. auris and C. albicans, respectively. Plates were further incubated (37 °C, 150 rpm, 24 h). The supernatant was discarded and biofilms were washed with PBS, stained by adding 150 μL of the crystal violet (CV; Sigma Aldrich) solution (0.1%), and incubated (room temperature, 25 min). Afterwards, the plates were washed twice with PBS buffer. A total of 150 μL ethanol (95%) were applied to dissolve the biofilm-bound CV. The absorbance was measured by a plate reader (Synergy 2, BioTek, Santa Clara, CA, USA) at 570 nm for C. auris or 610 nm for C. albicans. Error bars indicate SD with duplicates in two biological repeats.

[2] = tested on: mouse fibroblasts L929 [ACC 2]; conditions: cited from earlier work
C. albicans [DSM 1665] = tested on: C. albicans [DSM 1665]; design: method as in doi:10.1002/ejoc.202001661; conditions: highest tested concentration 250 µg/mL; cited from earlier work
[3] = tested on: murine fibroblasts (L929) and human endocervical adenocarcinoma cells (KB-3-1); design: method as in doi:10.1002/ejoc.202001661; conditions: range over Rub A and Rub Z and over both cell lines; cited from earlier work
[4] = tested on: human endocervical adenocarcinoma KB-3-1 [ACC 158] cells; conditions: cited from earlier work
C. auris [DSM 21092] = assay: MIC assay, C. auris; type: cell-based, Candida auris; conditions: tested 250–2 µg/mL
Procedure: as §1, §2, §3, §4, §5, §6, §7, §8, §9

[5] = design: method as in PMID 15921417; conditions: OA alone; cited from earlier work
[6] = tested on: C. albicans [DSM 11225] biofilm; assay: Crystal violet biofilm formation assay, C. albicans; type: cell-based, Candida albicans; conditions: CV assay, 24 h treatment
Procedure: as §10, with “Methanol (2.5%) was used as a solvent control and both, nystatin (NYS; Thermo Fisher Scientific) and farnesol (FA; Sigma Aldrich, St. Louis, MO, USA) as positive controls (250–2 μg/mL) for C. auris and C. albicans, respectively. Plates were further incubated (37 °C, 150 rpm, 24 h). The supernatant was discarded and biofilms were washed with PBS, stained by adding 150 μL of the crystal violet (CV; Sigma Aldrich) solution (0.1%), and incubated (room temperature, 25 min). Afterwards, the plates were washed twice with PBS buffer. A total of 150 μL ethanol (95%) were applied to dissolve the biofilm-bound CV.” left out, “Error bars indicate SD with duplicates in two biological repeats.” left out

| Structure (SMILES) | MIC [1] | MIC (C. albicans [DSM 11225]) | effect on formation of C. auris biofilms (C. auris biofilm) | inhibition at 2 µg/mL (C. auris biofilm) [%] | inhibition at 3.9 µg/mL (C. auris biofilm) [%] | inhibition at 7.8 µg/mL (C. auris biofilm) [%] | inhibition at 15.6 µg/mL (C. auris biofilm) [%] | inhibition at 31.3 µg/mL (C. auris biofilm) [%] | inhibition at 62.5 µg/mL (C. auris biofilm) [%] | inhibition at 125 µg/mL (C. auris biofilm) [%] | inhibition at 250 µg/mL (C. auris biofilm) [%] | IC50 [2] [µM] | MIC (C. albicans [DSM 1665]) | IC50 values between [3] [µg/mL] | IC50 [4] [µM] | MIC (C. auris [DSM 21092]) | cytotoxicity [5] | concentration above which significant effects on C. albicans biofilm formation start [6] |
| --- | --- | --- | --- | --- | --- | --- | --- | --- | --- | --- | --- | --- | --- | --- | --- | --- | --- | --- |
| CC(=O)OC/C=C/C1=CC2=C(CO1)C(=O)[C@@](C)(OC(=O)c1c(C)cc(O)cc1O)[C@@H](O)C2 [Rub Z, rubiginosin Z] | no antimicrobial activity | no antimicrobial activity | did not affect the formation | < 20 | < 20 | < 20 | < 20 | < 20 | < 20 | < 20 | < 20 | 4.7 | no antimicrobial activity | 2.6 to 4.5 | 5.2 | no antimicrobial activity |  |  |
| Cc1cc(O)cc(O)c1C(=O)O [OA, orsellinic acid] |  |  |  |  |  |  |  |  |  |  |  |  |  |  |  |  | no cytotoxicity |  |
| CC(=O)OC/C=C/C1=CC2=C(CO1)C(=O)[C@@](C)(O)[C@@H](OC(=O)c1c(C)cc(O)cc1O)C2 [Rub A, rubiginosin A] | no antimicrobial activity | no antimicrobial activity | did not affect the formation | < 20 | < 20 | < 20 | < 20 | < 20 | < 20 | < 20 | < 20 | 3.2 | no antimicrobial activity | 2.6 to 4.5 | 5.2 | no antimicrobial activity |  | above 31.3 µg/mL |
